Laboratory results published in PubChem BioAssay (NCI).
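Here, GI50 denotes the concentration required for 50% inhibition of growth. TGI marks complete inhibition of growth.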

Columns and labels:
Experiment in all cases: NCI tumour cell line growth inhibition, 384-well format
[1] = tested on: HCT-15 colon
[2] = tested on: COLO 205 colon
[3] = tested on: NCI/ADR-RES ovarian
[4] = tested on: OVCAR-5 ovarian
[5] = tested on: NCI-H460 NSCLC
[6] = tested on: SF-539 CNS
[7] = tested on: HCC-2998 colon
[8] = tested on: NCI-H23 lung
[9] = tested on: NCI-H226 lung
[10] = tested on: HOP-92 NSCLC
[11] = tested on: HS 578T breast
[12] = tested on: SN12C renal
[13] = tested on: EKVX NSCLC
[14] = tested on: SK-OV-3 ovarian
[15] = tested on: OVCAR-3 ovarian
[16] = tested on: U251 glioblastoma
[17] = tested on: DU-145 prostate
[18] = tested on: SW-620 colon
[19] = tested on: SNB-19 CNS
[20] = tested on: OVCAR-4 ovarian
[21] = tested on: LOX IMVI melanoma
[22] = tested on: HL-60(TB) leukemia
[23] = tested on: KM12 colon
[24] = tested on: NCI-H522 lung
[25] = tested on: A549 NSCLC
[26] = tested on: PC-3 prostate
[27] = tested on: SK-MEL-5 melanoma
[28] = tested on: CAKI-1 renal
[29] = tested on: SK-MEL-28 melanoma
[30] = tested on: UACC-62 melanoma
[31] = tested on: MCF7 breast
[32] = tested on: RPMI-8226 leukemia
[33] = tested on: MDA-MB-231 breast
[34] = tested on: T-47D breast
[35] = tested on: M14 melanoma
[36] = tested on: MALME-3M melanoma
[37] = tested on: NCI-H322M lung
[38] = tested on: HT29 colon
[39] = tested on: UACC-257 melanoma
[40] = tested on: TK-10 renal
[41] = tested on: SR leukemia
[42] = tested on: SF-295 CNS
[43] = tested on: CCRF-CEM leukemia
[44] = tested on: IGROV1 ovarian
[45] = tested on: BT-549 breast
[46] = tested on: RXF 393 renal
[47] = tested on: A498 renal
[48] = tested on: MDA-MB-435 melanoma
[49] = tested on: MOLT-4 leukemia
[50] = tested on: OVCAR-8 ovarian
[51] = tested on: SF-268 CNS
[52] = tested on: MDA-MB-468 breast
[53] = tested on: 786-0 renal
[54] = tested on: UO-31 renal
[55] = tested on: HOP-62 NSCLC
[56] = tested on: ACHN renal
[57] = tested on: K-562 leukemia
[58] = tested on: SNB-75 CNS

SMILES: CN(C)c1cc2c(cc1Sc1nc3c(N)nccc3n1CCNCC(C)(C)C)OCO2
- GI50 [1]: 144 nM
- TGI [1]: 8640 nM
- GI50 [2]: 66.4 nM
- TGI [2]: 325 nM
- GI50 [3]: 280 nM
- TGI [3]: 625 nM
- GI50 [4]: 390 nM
- TGI [4]: 9750 nM
- GI50 [5]: 138 nM
- TGI [5]: 297 nM
- GI50 [6]: 236 nM
- TGI [6]: 541 nM
- GI50 [7]: 183 nM
- TGI [7]: 419 nM
- GI50 [8]: 134 nM
- TGI [8]: 467 nM
- GI50 [9]: 387 nM
- TGI [9]: 13200 nM
- GI50 [10]: 183 nM
- TGI [10]: 503 nM
- GI50 [11]: 261 nM
- TGI [11]: 769 nM
- GI50 [12]: 221 nM
- TGI [12]: 506 nM
- GI50 [13]: 344 nM
- TGI [13]: 11800 nM
- GI50 [14]: 231 nM
- TGI [14]: 10800 nM
- GI50 [15]: 234 nM
- TGI [15]: 631 nM
- GI50 [16]: 352 nM
- TGI [16]: 1420 nM
- GI50 [17]: 228 nM
- TGI [17]: 1130 nM
- GI50 [18]: 215 nM
- TGI [18]: 715 nM
- GI50 [19]: 423 nM
- TGI [19]: 6840 nM
- GI50 [20]: 324 nM
- TGI [20]: 883 nM
- GI50 [21]: 177 nM
- TGI [21]: 330 nM
- GI50 [22]: 111 nM
- TGI [22]: 241 nM
- GI50 [23]: 171 nM
- TGI [23]: 6350 nM
- GI50 [24]: 191 nM
- TGI [24]: 377 nM
- GI50 [25]: 131 nM
- TGI [25]: 12100 nM
- GI50 [26]: 229 nM
- TGI [26]: 517 nM
- GI50 [27]: 79.8 nM
- TGI [27]: 1450 nM
- GI50 [28]: 449 nM
- TGI [28]: 15800 nM
- GI50 [29]: 327 nM
- TGI [29]: 11900 nM
- GI50 [30]: 226 nM
- TGI [30]: 590 nM
- GI50 [31]: 89.5 nM
- TGI [31]: 1680 nM
- GI50 [32]: 135 nM
- TGI [32]: 291 nM
- GI50 [33]: 231 nM
- TGI [33]: 608 nM
- GI50 [34]: 350 nM
- TGI [34]: 10500 nM
- GI50 [35]: 303 nM
- TGI [35]: 3440 nM
- GI50 [36]: 241 nM
- TGI [36]: 548 nM
- GI50 [37]: 299 nM
- TGI [37]: 14800 nM
- GI50 [38]: 188 nM
- TGI [38]: 2260 nM
- GI50 [39]: 507 nM
- TGI [39]: 4140 nM
- GI50 [40]: 400 nM
- TGI [40]: 5550 nM
- GI50 [41]: 62.8 nM
- TGI [41]: 197 nM
- GI50 [42]: 218 nM
- TGI [42]: 499 nM
- GI50 [43]: 118 nM
- TGI [43]: 312 nM
- GI50 [44]: 270 nM
- TGI [44]: 742 nM
- GI50 [45]: 118 nM
- TGI [45]: 664 nM
- GI50 [46]: 127 nM
- TGI [46]: 348 nM
- GI50 [47]: 82.9 nM
- TGI [47]: 11900 nM
- GI50 [48]: 447 nM
- TGI [48]: 15300 nM
- GI50 [49]: 58.9 nM
- TGI [49]: 192 nM
- GI50 [50]: 174 nM
- TGI [50]: 349 nM
- GI50 [51]: 221 nM
- TGI [51]: 11100 nM
- GI50 [52]: 307 nM
- TGI [52]: 507 nM
- GI50 [53]: 280 nM
- TGI [53]: 963 nM
- GI50 [54]: 683 nM
- TGI [54]: 19500 nM
- GI50 [55]: 292 nM
- TGI [55]: 934 nM
- GI50 [56]: 376 nM
- TGI [56]: 13200 nM
- GI50 [57]: 199 nM
- TGI [57]: 737 nM
- GI50 [58]: 273 nM
- TGI [58]: 553 nM
